{
  "source": "patent US20050107870A1",
  "about": "“Medical device with multiple coating layers” (priority 2003, published 2005)",
  "origin": "cited, not measured here",
  "key": {"[1]": {"conditions": "hydrophilic magnetically responsive microspheres"}, "cancer cells": {"tested_on": "cancer cells", "conditions": "exposed to low-level electromagnetic fields present in some North American homes"}},
  "note": "Where a name gives a salt, the structure may show the parent alone.",
  "data": [
    {"smiles": "COc1ccc2[nH]cc(CCNC(C)=O)c2c1", "note": "[melatonin]", "values": [
      {"measurement": "growth of breast cancer cells", "setting": "breast cancer cells; cells exposed to 2 milligauss magnetic fields", "result": "inhibit the growth of breast cancer cells"},
      {"measurement": "growth-inhibiting activity on breast cancer cells", "setting": "breast cancer cells; cells in a 12 milliGauss field", "result": "essentially reased"}
    ]},
    {"smiles": "COc1cccc2c1C(=O)c1c(O)c3c(c(O)c1C2=O)C[C@@](O)(C(=O)CO)C[C@@H]3O[C@H]1C[C@H](N)[C@H](O)[C@H](C)O1", "note": "[adriamycin, doxorubicin hydrochloride]", "values": [
      {"measurement": "incorporated concentration of therapeutic agent in microspheres", "setting": "[1]", "result": "up to 50 wt %"}
    ]},
    {"smiles": "CC/C(=C(\\c1ccccc1)c1ccc(OCCN(C)C)cc1)c1ccccc1", "note": "[tamoxifen]", "values": [
      {"measurement": "ability to halt the proliferation of cancer cells", "setting": "cancer cells", "result": "lost its ability to halt the proliferation of cancer cells"}
    ]}
  ]
}
